In general, IC50 refers to the point on the concentration scale where inhibition reaches its midpoint.

Format in all cases: functional
Assay [1] has as its target T1, Putative uncharacterized protein pk7 (Plasmodium falciparum, UniProt O96214).
T1 sequence (O96214 whole entry): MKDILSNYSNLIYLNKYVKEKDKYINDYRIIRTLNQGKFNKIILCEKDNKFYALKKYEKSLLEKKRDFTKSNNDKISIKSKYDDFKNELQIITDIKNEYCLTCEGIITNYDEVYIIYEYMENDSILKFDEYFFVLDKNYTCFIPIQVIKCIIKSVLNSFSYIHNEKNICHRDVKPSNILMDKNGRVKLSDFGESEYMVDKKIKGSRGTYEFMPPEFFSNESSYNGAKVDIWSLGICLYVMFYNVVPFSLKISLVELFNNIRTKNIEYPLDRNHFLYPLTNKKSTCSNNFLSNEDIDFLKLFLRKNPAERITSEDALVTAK
In words: Final concentrations were 1 uM ATP, 2 mM DTT, 20 mM MgCl2, 2 mM MnCl2, 0.01% BSA, and 6 ug/ml PK7, in a buffer of 20 mM Tris-HCl (pH 7.5). The enzyme itself was the only substrate present (since autophosphorylation occurs); 100 uM 1NA-PP1 was used as a control inhibitor. Incubation time was 3 hours.

The target in assay [2] is Calcium-dependent protein kinase 1 (Plasmodium falciparum, UniProt P62344). As to the kind of experiment: MMV: CDPK1 Protein kinase inhibition assay using recombinant PfCDPK1, syntide 2 peptide substrate, ATP and KinaseGlo to measure % inhibition at 1 uM MMV box compound. On the technique in general: Kinase-Glo measures the ATP left after a reaction by luminescence.
For assay [3], the target named is T2, Mitogen-activated protein kinase (Plasmodium falciparum, UniProt Q25917).
T2 sequence (Q25917 whole entry): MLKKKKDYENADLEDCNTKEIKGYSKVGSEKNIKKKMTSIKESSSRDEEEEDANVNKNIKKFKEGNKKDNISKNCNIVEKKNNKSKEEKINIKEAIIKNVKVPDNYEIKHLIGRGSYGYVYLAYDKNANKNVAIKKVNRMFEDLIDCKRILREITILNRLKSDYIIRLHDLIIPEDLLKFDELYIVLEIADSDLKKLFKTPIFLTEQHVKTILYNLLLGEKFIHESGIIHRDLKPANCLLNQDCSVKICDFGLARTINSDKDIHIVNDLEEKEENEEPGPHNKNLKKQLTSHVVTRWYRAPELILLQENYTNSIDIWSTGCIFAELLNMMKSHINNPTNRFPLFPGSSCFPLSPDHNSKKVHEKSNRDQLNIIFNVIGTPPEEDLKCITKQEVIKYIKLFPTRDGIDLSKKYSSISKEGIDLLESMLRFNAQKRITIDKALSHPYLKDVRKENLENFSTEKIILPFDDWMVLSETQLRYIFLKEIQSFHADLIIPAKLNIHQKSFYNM
In words: Final concentrations were 1 uM ATP, 0.5 mM DTT, 1 mM MgCl2, 0.5 mg/mL BSA, and 10 ug/ml MAP2 in a buffer of 50 mM HEPES (pH 7.0). 0.5 mg/mL histone III-S served as the substrate (13); 100 uM AMP-PNP, an ATP analog, was used as a control inhibitor. Incubation time was 4 hours.

The target of assay [4] is T3, Cdk-related protein kinase 6 (Plasmodium falciparum, UniProt O77239).
T3 sequence (O77239 whole entry): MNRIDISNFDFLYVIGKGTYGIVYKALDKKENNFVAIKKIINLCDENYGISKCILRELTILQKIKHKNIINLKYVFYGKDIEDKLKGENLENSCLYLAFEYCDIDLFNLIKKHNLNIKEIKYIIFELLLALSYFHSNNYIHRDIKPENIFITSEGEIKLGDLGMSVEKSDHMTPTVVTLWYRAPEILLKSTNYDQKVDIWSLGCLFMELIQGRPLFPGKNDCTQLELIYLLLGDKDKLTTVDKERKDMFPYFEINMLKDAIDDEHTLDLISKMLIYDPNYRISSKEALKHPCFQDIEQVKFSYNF
In words: Final concentrations were 1.5 uM ATP, 5 mM MnCl2, and 15 ug/ml PK6 in a buffer of 100 mM Tris-HCl (pH 7.5). 50 ug/mL MBP was provided as the substrate; 10 uM staurosporine was used as a control inhibitor. Incubation time was 3 hours and 40 minutes.The catalytic activity of each kinase was considered proportional to ATP consumed, as determined from measurements of residual [ATP] with the luciferase-based reagent Kinase-Glo (Promega) following incubation. Luminescence (proportional to residual [ATP]) was measured on the plate readers FLx800 (BioTek Instruments, Winooski, VT, USA) and MicroBeta2.

The target of another assay is Lysine--tRNA ligase (Plasmodium falciparum (isolate 3D7), UniProt Q8IDJ8). In words: MMV: KRS recombinant Plasmodium falciparum Lysyl-tRNA-synthetase, assay with yeast tRNA, ATP, and lysine and 3 uM MMV malaria box compound, assay read out with kinase glo as % inhibition.
The next assay concerns the target T4, Proline--tRNA ligase (Plasmodium falciparum (isolate 3D7), UniProt Q8I5R7).
T4 sequence (Q8I5R7 whole entry): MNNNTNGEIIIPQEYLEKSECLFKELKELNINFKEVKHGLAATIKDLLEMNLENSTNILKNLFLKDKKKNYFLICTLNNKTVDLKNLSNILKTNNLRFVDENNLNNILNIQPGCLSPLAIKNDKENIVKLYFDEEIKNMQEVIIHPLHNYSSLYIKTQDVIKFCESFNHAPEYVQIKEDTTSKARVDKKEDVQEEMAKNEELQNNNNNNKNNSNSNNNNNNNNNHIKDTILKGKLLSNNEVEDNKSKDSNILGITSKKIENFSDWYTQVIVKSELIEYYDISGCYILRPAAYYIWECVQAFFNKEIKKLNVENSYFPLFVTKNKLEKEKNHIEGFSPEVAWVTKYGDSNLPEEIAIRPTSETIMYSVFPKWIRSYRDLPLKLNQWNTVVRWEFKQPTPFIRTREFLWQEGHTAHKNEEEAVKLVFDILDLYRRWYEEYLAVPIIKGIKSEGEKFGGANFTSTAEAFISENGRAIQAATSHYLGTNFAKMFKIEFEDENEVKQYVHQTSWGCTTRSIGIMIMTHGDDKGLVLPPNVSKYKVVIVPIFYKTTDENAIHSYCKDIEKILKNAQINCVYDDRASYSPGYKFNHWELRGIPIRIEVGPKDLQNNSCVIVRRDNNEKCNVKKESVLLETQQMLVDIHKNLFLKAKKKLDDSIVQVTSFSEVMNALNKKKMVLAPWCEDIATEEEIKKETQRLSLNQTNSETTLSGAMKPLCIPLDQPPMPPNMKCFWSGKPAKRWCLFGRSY
As to the kind of experiment: MMV: ProRS recombinant Plasmodium falciparum Prolyl-tRNA-synthetase, assay with yeast tRNA, ATP, and proline and 3 uM MMV malaria box compound, assay read out with kinase glo as % inhibition.

The target of assay [5] is T5, Calcium-dependent protein kinase 4 (Plasmodium falciparum (isolate 3D7), UniProt Q8IBS5).
T5 sequence (Q8IBS5 whole entry): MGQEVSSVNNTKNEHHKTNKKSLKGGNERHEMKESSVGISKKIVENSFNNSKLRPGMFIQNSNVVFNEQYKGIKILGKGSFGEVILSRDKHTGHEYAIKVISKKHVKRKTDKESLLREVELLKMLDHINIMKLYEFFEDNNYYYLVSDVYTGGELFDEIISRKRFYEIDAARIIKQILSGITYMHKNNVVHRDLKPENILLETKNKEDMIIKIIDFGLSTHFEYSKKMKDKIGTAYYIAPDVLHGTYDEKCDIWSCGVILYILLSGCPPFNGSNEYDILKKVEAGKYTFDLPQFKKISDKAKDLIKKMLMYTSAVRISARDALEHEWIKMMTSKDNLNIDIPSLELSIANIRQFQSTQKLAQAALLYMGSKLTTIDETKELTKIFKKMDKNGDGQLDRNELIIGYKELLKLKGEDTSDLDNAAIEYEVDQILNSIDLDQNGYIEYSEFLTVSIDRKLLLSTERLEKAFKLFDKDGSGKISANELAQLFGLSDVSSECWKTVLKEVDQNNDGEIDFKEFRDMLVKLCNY
As to the kind of experiment: MMV: CDPK4 Protein kinase inhibition assay using recombinant PfCDPK4, syntide2 peptide substrate, ATP and KinaseGlo to measure % inhibition at 1 uM MMV box compound.

Some results are limits rather than exact numbers.

Sequence of Lysine--tRNA ligase (Q8IDJ8 whole entry): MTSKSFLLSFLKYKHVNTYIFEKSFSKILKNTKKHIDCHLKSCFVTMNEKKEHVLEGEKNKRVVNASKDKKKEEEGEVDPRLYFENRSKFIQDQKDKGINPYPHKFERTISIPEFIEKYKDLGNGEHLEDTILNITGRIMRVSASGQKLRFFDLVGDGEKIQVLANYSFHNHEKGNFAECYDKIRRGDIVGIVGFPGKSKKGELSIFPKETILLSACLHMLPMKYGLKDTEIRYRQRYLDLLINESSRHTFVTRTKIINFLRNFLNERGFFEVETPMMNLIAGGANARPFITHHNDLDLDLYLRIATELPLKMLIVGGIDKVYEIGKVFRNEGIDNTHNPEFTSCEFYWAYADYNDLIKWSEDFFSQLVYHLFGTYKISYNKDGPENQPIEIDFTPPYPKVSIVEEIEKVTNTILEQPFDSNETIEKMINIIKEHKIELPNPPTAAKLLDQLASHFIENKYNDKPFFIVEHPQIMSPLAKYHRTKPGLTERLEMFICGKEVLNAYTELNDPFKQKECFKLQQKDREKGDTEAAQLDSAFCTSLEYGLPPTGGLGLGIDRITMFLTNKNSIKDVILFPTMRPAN
Sequence of Calcium-dependent protein kinase 1 (P62344 whole entry): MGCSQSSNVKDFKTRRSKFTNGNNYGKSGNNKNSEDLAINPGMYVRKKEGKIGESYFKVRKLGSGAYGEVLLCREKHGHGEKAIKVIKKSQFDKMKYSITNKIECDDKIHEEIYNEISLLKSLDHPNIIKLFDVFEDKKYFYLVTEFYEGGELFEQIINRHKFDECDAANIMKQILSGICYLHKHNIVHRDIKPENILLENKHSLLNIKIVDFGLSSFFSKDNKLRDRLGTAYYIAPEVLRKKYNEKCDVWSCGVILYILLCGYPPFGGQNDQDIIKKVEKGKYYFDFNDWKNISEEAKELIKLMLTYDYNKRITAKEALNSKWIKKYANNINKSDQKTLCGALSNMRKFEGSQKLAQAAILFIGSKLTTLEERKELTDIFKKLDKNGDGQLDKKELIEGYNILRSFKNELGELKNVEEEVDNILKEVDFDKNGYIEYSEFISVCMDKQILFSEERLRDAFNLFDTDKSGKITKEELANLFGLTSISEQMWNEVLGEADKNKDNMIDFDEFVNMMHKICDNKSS

On to `OC(Cn1nnc2ccccc21)Cn1c2ccc(Br)cc2c2cc(Br)ccc21` (stereo not drawn), for which the IC50 was more than 1000 nM in assay [1]; more than 1000 nM in assay [2]; more than 1000 nM in assay [3]; more than 1000 nM in assay [4]; more than 2500 nM at Lysine--tRNA ligase; more than 2500 nM on Proline--tRNA ligase. In addition, the concentration for half-maximal inhibition (IC50) in assay [5] was more than 1000 nM.
As for `CCc1ccc(Nc2cc(C)nc3nc(C)nn23)cc1`, the IC50 is more than 1000 nM in assay [1]; more than 1000 nM in assay [2]; more than 1000 nM in assay [3]; more than 1000 nM in assay [4]; more than 2500 nM on Lysine--tRNA ligase; more than 2500 nM on Proline--tRNA ligase. Further, in assay [5], the IC50 is more than 1000 nM.
With `Cc1ccc(C)c(Cn2c(N3CCC(C(=O)NCc4cccs4)CC3)nc3ccccc32)c1`, the IC50 was more than 1000 nM in assay [1]; more than 1000 nM in assay [2]; more than 1000 nM in assay [3]; more than 1000 nM in assay [4]; more than 2500 nM on Lysine--tRNA ligase; more than 2500 nM on Proline--tRNA ligase. Besides, the IC50 in assay [5] is more than 1000 nM.
Take `COc1cc2c(cc1OC)C1=NNC(=O)C1=NC(C)(C)C2`: the IC50 in assay [1] was more than 1000 nM; in assay [2] it was more than 1000 nM; in assay [3], more than 1000 nM; in assay [4], more than 1000 nM; at Lysine--tRNA ligase, more than 2500 nM; at Proline--tRNA ligase, more than 2500 nM. In addition, the IC50 in assay [5] was more than 1000 nM.
`O=C(NC(c1ccccc1)c1ccc2cccnc2c1O)c1ccccc1` (stereo not drawn): the IC50 is more than 1000 nM in assay [1]; more than 1000 nM in assay [2]; more than 1000 nM in assay [3]; more than 1000 nM in assay [4]; more than 2500 nM on Lysine--tRNA ligase; more than 2500 nM on Proline--tRNA ligase. The IC50 in assay [5] is more than 1000 nM.
Turning to `O=C(NCc1ccco1)C1CCN(S(=O)(=O)c2ccc(Br)cc2)CC1`, the IC50 in assay [1] was more than 1000 nM; in assay [2], more than 1000 nM; in assay [3], more than 1000 nM; in assay [4], more than 1000 nM; on Lysine--tRNA ligase, more than 2500 nM; on Proline--tRNA ligase it was more than 2500 nM. Also, in assay [5], the IC50 is more than 1000 nM.
With `CCOC(=O)c1c(C)n(-c2ccc(Cl)cc2)c2ccc(OC(=O)C=Cc3ccccc3)cc12`, the IC50 is more than 1000 nM in assay [1]; more than 1000 nM in assay [2]; more than 1000 nM in assay [3]; more than 1000 nM in assay [4]; more than 2500 nM on Lysine--tRNA ligase; more than 2500 nM on Proline--tRNA ligase. The IC50 in assay [5] was more than 1000 nM.
As for `CCC(C)NCC(O)(c1ccc(Cl)cc1)c1ccc(Cl)cc1` (stereo not drawn), the IC50 in assay [1] is more than 1000 nM; in assay [2], more than 1000 nM; in assay [3], more than 1000 nM; in assay [4], more than 1000 nM; at Lysine--tRNA ligase it was more than 2500 nM; on Proline--tRNA ligase, more than 2500 nM. In assay [5], the IC50 was more than 1000 nM.
For `COc1cc(-c2nc(-c3ccc(Sc4ccccc4)cc3)c(-c3ccccc3)[nH]2)cc(OC)c1O`, the 50% inhibitory concentration (IC50) in assay [1] is more than 1000 nM; in assay [2], more than 1000 nM; in assay [3], more than 1000 nM; in assay [4] it was more than 1000 nM; at Lysine--tRNA ligase, more than 2500 nM; at Proline--tRNA ligase, more than 2500 nM. Further, the IC50 in assay [5] was more than 1000 nM.
Turning to `Oc1ccc(C(=C(Cl)Cl)c2ccc(O)cc2)cc1`, the IC50 in assay [1] was more than 1000 nM; in assay [2] it was more than 1000 nM; in assay [3], more than 1000 nM; in assay [4], more than 1000 nM; at Lysine--tRNA ligase it was more than 2500 nM; on Proline--tRNA ligase it was more than 2500 nM. In addition, the IC50 in assay [5] was more than 1000 nM.
As to `CC(C)(C)c1ccc(C2CC3=Nc4ccccc4N(C(=O)c4ccccc4Cl)C(c4ccc(F)cc4)C3=C(O)C2)cc1` (stereo not drawn), the IC50 is more than 1000 nM in assay [1]; more than 1000 nM in assay [2]; more than 1000 nM in assay [3]; more than 1000 nM in assay [4]; more than 2500 nM at Lysine--tRNA ligase; more than 2500 nM on Proline--tRNA ligase. The IC50 in assay [5] was more than 1000 nM.
On to `FC(F)(F)c1cccc(Nc2nc3ccccc3nc2Nc2cccc(C(F)(F)F)c2)c1`, for which the IC50 in assay [1] was more than 1000 nM; in assay [2], more than 1000 nM; in assay [3], more than 1000 nM; in assay [4], more than 1000 nM; at Lysine--tRNA ligase it was more than 2500 nM; at Proline--tRNA ligase, more than 2500 nM. Further, the IC50 in assay [5] is more than 1000 nM.
For `O=C(NCCCN1CCC(N2CCCCC2)CC1)C1=Cc2cc(Br)ccc2OC1`, the IC50 in assay [1] was more than 1000 nM; in assay [2] it was more than 1000 nM; in assay [3], more than 1000 nM; in assay [4] it was more than 1000 nM; on Lysine--tRNA ligase, more than 2500 nM; at Proline--tRNA ligase, more than 2500 nM. In assay [5], the IC50 was more than 1000 nM.
With `COc1cc(-c2nc(-c3ccccc3)c(-c3ccccc3)[nH]2)cc(OC)c1O`, the IC50 was more than 1000 nM in assay [1]; more than 1000 nM in assay [2]; more than 1000 nM in assay [3]; more than 1000 nM in assay [4]; more than 2500 nM on Lysine--tRNA ligase; more than 2500 nM on Proline--tRNA ligase. Also, in assay [5], the IC50 was more than 1000 nM.

The record behind these values is ChEMBL document CHEMBL3301562, “MMV Box screening against Plasmodium falciparum protein kinases and aminoacyl tRNA synthetases”.
